ChEMBL document CHEMBL1136662, “Synthesis and properties of 11-(3,5-di-tert-butyl-2-hydroxyphenylcarbamoyl)undecanoic acid, a new amphiphilic antioxidant” (Bioorg Med Chem Lett, 2003)

Experiment: Hydrophobicity was determined
Format: ADME

k'	SMILES
6.39	COCCCCCCCCCCCC(=O)Nc1cc(C(C)(C)C)cc(C(C)(C)C)c1O
25.2	CCCCCCCCCCCCCC(=O)Nc1cc(C(C)(C)C)cc(C(C)(C)C)c1O
12.6	CCCCCCCCCCCC(=O)Nc1cc(C(C)(C)C)cc(C(C)(C)C)c1O
0.38	CC(C)(C)c1cc(NC(=O)CCCCCCCCC(=O)O)c(O)c(C(C)(C)C)c1
7.13	CCCCCCCCCC(=O)Nc1cc(C(C)(C)C)cc(C(C)(C)C)c1O
